These results are taken from paper PMC7048748, “Anxiolytic Drug FGIN-1-27 Ameliorates Autoimmunity by Metabolic Reprogramming of Pathogenic Th17 Cells” (Scientific Reports, 2020).

SMILES strings stand for the structures.

In assay [1] the test system is S6 ribosomal protein (Ser 235/236) and mTOR (Ser 2448). The assay can be described thus: Phospho S6 and phospho mTOR staining. It is filed as cell-based, mouse. Particulars: 10, 5 and 2.5 µM. As to the method: For phospho-S6 analyses, cells were cultured for 3 hours in Th17 polarization media on anti-CD3/CD28 coated plates. Cells were then fixed after fixation and permeabilization with a Transcription Factor Staining kit (eBioscience) and stained with anti-phospho-S6 antibody (S235/236, Cell Signaling) and anti-CD4. Dead cells were excluded using Live/Dead stain prior to fixation. For mTOR analyses, anti-phospho-mTOR antibody was used (Ser2448, eBioscience). page 6: […] blot analysis for phosphorylated eIF2α and ATF4 24 hours after treatment with DMSO or FGIN-1-27 (5 and 10 μM). (b) Intracellular phospho S6 ([…]/236) Th17 cells treated with DMSO or FGIN-1-27 […] The black line represents DMSO and the grey filled histogram represent FGIN-1-27 (10μM). The dotted lines (5μ M) and the dashed line represents staining after 2.5μM of FGIN-1-27 treatment. (c) Intracellular phospho mTOR ([…]) Th17 cells treated with DMSO or FGIN-1-27 […] The black line represents DMSO and the grey filled histogram represent FGIN-1-27 (10μM). The dotted lines (5μ M) and the dashed line represents staining after 2.5μM of FGIN-1-27 treatment.

Assay [2] deals with experimental autoimmune encephalomyelitis (EAE). As to the kind of experiment: Passive EAE by adoptive transfer of treated 2D2 Th17 cells. It is filed as in vivo, mouse. On the procedure:
We interrogated whether FGIN-1-27 can influence Th17 dependent pathology in vivo by using a mouse model of passive EAE in which Th17 cells are responsible for driving immuno-pathogenesis. To this end, we sorted naïve CD4^+ T cells (CD4^+Vβ11^+CD62L^hi) from spleen and lymph nodes of “2D2” T cell receptor (TCR) transgenic mice that specifically recognize myelin oligodendrocyte glycoprotein (MOG) peptide and activated them under Th17 polarizing conditions. The cultures were treated with DMSO or FGIN-1-27 during the Th17 differentiation process and cells were reactivated on day 5 for an additional 48 hours and equal numbers of 2D2 Th17 polarized cells treated either with DMSO or FGIN-1-27 were adoptively transferred to recipient mice.
(a) Immunophenotyping of 2D2 TCR transgenic CD4^+ T cells for intracellular IL-17 and IFNγ before adoptive transfer. Cultures were treated with DMSO or FGIN-1-27 during Th17 polarization process. (b) Mean clinical scores of mice following the adoptive transfer of 5 × 10^6 2D2 Th17 cells treated with DMSO or 5 × 10^6 2D2 Th17 cells treated with FGIN-1-27. […] The error bars represent SEM. (c) Mean clinical scores of T cell-deficient (Tcrb^−/−) mice following adoptive transfer of 5 × 10^6 2D2 Th17 cells treated with DMSO or 5 × 10^6 2D2 Th17 cells treated with FGIN-1-27. […] The error bars represent SEM. (d) Enumeration of total mononuclear or 2D2 CD4^+ T cells (CD4^+Vβ11^+) in spleens of mice receiving either DMSO or FGIN-1-27 treated 2D2 T cells. Cells were analyzed at the peak of EAE disease (day 15 post-transfer) by flow cytometry. The error bars represent SD. (e) Enumeration of total CNS mononuclear or CNS-infiltrating 2D2 CD4^+ T cells (CD4^+Vβ11^+) in mice receiving either DMSO or FGIN-1-27 treated 2D2 T cells. Cells were analyzed at the peak of EAE disease (day 15 post-transfer) by flow cytometry. The errors bars represent SD. (f) Intracellular cytokine staining of 2D2 CD4^+ T cells (day 15 post-transfer) for IL-17, IFNγ and GM-CSF from the CNS of mice that received either DMSO or FGIN-1-27 treated cells. The error bars represent SD.
Naïve CD4^+ T cells (CD4^+Vβ11^+CD62L^hi) were sorted from the spleens and lymph nodes of 2D2 TCR transgenic mice and polarized towards Th17 lineage in the presence of irradiated splenocytes (5:1 ratio) and 2.5 μg/ml anti-CD3 (145-2C11, BioXCell), 20 μg/ml anti-IL-4 (11B11, BioXCell), 20 μg/ml anti-IFNγ (XMG1.2, BioXCell), 30 ng/ml mIL-6 and 3 ng/ml hTGF-β1 (Miltenyi Biotec). The following day, cells were treated with either DMSO or FGIN-1-27 (10 μM) and IL-23 (10 ng/ml; R&D Systems) was added after 60 h of activation. On day 5 of culture, cells were reactivated on plates precoated with 2 μg/ml of anti-CD3 and anti-CD28 (PV1, BioXCell) for 48 h, and 5 million cells were adoptively transferred to recipient mice to induce passive-transfer EAE. Classical EAE symptoms were scored daily according to standard criteria: 0, asymptomatic; 1, flaccid tail; 2, hind-limb weakness and impaired righting ability; 3, hind-limb paralysis; 4, front- and hind-limb paralysis; 5, moribund or death.

For the compound `CCCCCCN(CCCCCC)C(=O)Cc1c(-c2ccc(F)cc2)[nH]c2ccccc12` [FGIN-1-27, N, N-di-n-hexyl 2-(4-fluorophenyl) indole-3-acetamide], the “phosphorylation of S6 ribosomal protein (Ser 235/236) and mTOR (Ser 2448)” value in assay [1] is “dose-dependent decrease”. Moreover, the “onset and severity of EAE” value in assay [2] (T cell deficient (Tcrb−/−) recipient mice, p = 0.0067) was “delayed onset and reduced severity of EAE”. For the same compound, in assay [2] (day 15 post-transfer), the “2D2 CD4+ T cells recovered from the CNS” value is listed as “fewer”; the “2D2 CD4+ T cells recovered from the spleens” value was “higher number”; the “IFNγ and GM-CSF production of CNS 2D2 CD4+ T cells” value is listed as “intact”; the “percentage and absolute numbers of IL-17 producing 2D2 CD4+ T cells from the CNS” value was “significant reduction”. For the same compound, the “IL-17 producing 2D2 T cells before adoptive transfer” value in assay [2] (pre-transfer, 10 μM during Th17 polarization) was “reduced percentage of IL-17 producing cells”. Also, the “disease symptoms (mean clinical scores)” value in assay [2] (recipient mice, 5 × 10^6 treated 2D2 Th17 cells, p < 0.02) is on record as “much milder disease symptoms”.
